Laboratory results as given in patent US8530235B2, “Medium that supports culture of an oocyte and modulation of granulosa cell apoptosis” (Adelaide Research & Innovation Pty Ltd., priority 2005, dated 2013).

Legend:
cumulus cells [1] = assay: Staurosporine-induced cumulus cell apoptosis in OOX (TUNEL); type: cell-based, Bovine; settings: for incidence of CC apoptosis: OOX alone, without 41%; for CC apoptosis of treated OOX exposed to staurosporine: 10% BMP-15 or 10 ng/ml BMP-6
Method: CC apoptoic DNA was detected using TUNEl (Roche Diagnostic, Penzberg, Germany) according to the manufacturer's instructions. […] Complexes were then permeabilized in 0.11/u Triton X-100 in 0.1% sodium citrate for 1 hour at room temperature and washed 3 times in PBS/BSA. The complexes were then incubated in fluorescein-conjugated dUTP and terminal deoxynucleotide transferase (TUNEl reagents, Roche) for 1 hour at 37° C. in the dark. Positive controls were incubated in DNAse 1 (0.005 U/µl), which cleaves all DNA, for 20 minutes at room temperature and washed twice in PBS/BSA before TUNEl. Negative controls were incubated in fluorescein-dUTP in the absence of TdT. After TUNEl, complexes were washed twice in PBS/BSA and counterstained with propidium iodide 0.5 μg/ml (PI) plus RNase A (0.1 mg/ml) for 1 hour at room temperature in the dark to label all nuclei. Complexes were then washed twice in PBS/BSA and mounted with slight coverslip compression in VectaShield anti-bleaching solution (Vector labs, Burlingame, Calif.), and stored in the dark at 4° C. for confocal analysis. […] These optical section images were acquired and saved as independent colour channels (green, apoptotic cumulus fluorescence and red, nuclear cumulus fluorescence). The captured images were then processed in Scanalytics IPlab software Version 3.6. (Scanalytics, Fairfax, Va.). Quantification of CC number (for each colour channel) was independently measured using a macro script utilizing an auto segmentation filter for each optical section percentile (3 optical “z”-plane sections for each complex). A percentage of apoptotic nuclei were generated for each slice and the three percentile values were then averaged to achieve a representation of the total apoptotic nuclei percentage for the whole complex. These processes were repeated separately on each individual complex. A preliminary experiment was conducted to determine the apoptotic effect of staurosporine on bovine CC, which induced apoptosis in a dose-dependent manner (range; 0.1-100 μM, data not shown). The aim of this experiment was to determine whether OSF could prevent CC from undergoing apoptosis induced by staurosporine. OOX alone or co-cultured with 35 DO, 10 ng/ml BMP-6 or 10% (v/v) BMP-15, and were then exposed to either 0.1 μM or 1.0 μM staurospourine for the last 6 hours of the 24 hour incubation period. Three replicates of this experiment were carried out using 10 OOX per treatment group per replicate experiment.

cumulus cells [2] = assay: Cumulus cell apoptosis in oocytectomized complexes (OOX) and COC, TUNEL with confocal microscopy; type: cell-based, Bovine
Method: Bovine ovaries were collected from local abattoir and transported to the laboratory in warm saline (30-35° C.). Cumulus-oocyte complexes (COC) were aspirated from antral follicles (2- to 8-mm diameter) using an 18-gauge needle and a 10-ml syringe containing ˜2 ml aspiration media (Hepes-buffered Tissue Cultured Medium-199: TCM-199, ICN Biochemicals, Irvine, Calif., USA) supplemented with 50 μg/ml kanamycin (Sigma-Aldrish, St. louis, Mo.), 4 mg/ml fatty acid-free bovine serum albumin (FAF-BSA) (ICPbio ltd, Auckland, NZ). Intact COC with compact cumulus vestment greater than five cell layers and evenly pigmented cytoplasm were selected under a dissecting microscope and washed twice in Hepes-buffered TCM-199 and once in corresponding culturing media.
The cytoplasm of each oocyte was microsurgically removed from the COC (oocytectomy) using a micromanipulator as described in Buccione et al (Buccione et al. (1990) Dev Biol 138, 16-25.). The resulting oocytectomized complex (OOX) consists of a hollow zona pellucida surrounded by several layers of intact CC.
Denuded oocytes (DO) were generated by removing CC from COC by vortexing for approximately 4 minutes in 2 ml H-TCM-199/BSA. Any remaining CC were removed by repeated passage of the oocytes through a fine-bore fire-polished glass pipette in H-TCM-199/BSA.
CC apoptoic DNA was detected using TUNEl (Roche Diagnostic, Penzberg, Germany) according to the manufacturer's instructions. Briefly, following culture COC and OOX complexes were washed twice in PBS (pH 7.4) containing 1% BSA, fixed in 4% paraformaldehyde in PBS (pH 7.4) overnight at 4° C. and washed twice with PBS/BSA before placing on Cell-Tak-coated coverslips (Beckton Dickinson Biosciences, Franklin lakes, N.J.). Complexes were then permeabilized in 0.11/u Triton X-100 in 0.1% sodium citrate for 1 hour at room temperature and washed 3 times in PBS/BSA. The complexes were then incubated in fluorescein-conjugated dUTP and terminal deoxynucleotide transferase (TUNEl reagents, Roche) for 1 hour at 37° C. in the dark. Positive controls were incubated in DNAse 1 (0.005 U/µl), which cleaves all DNA, for 20 minutes at room temperature and washed twice in PBS/BSA before TUNEl. Negative controls were incubated in fluorescein-dUTP in the absence of TdT. After TUNEl, complexes were washed twice in PBS/BSA and counterstained with propidium iodide 0.5 μg/ml (PI) plus RNase A (0.1 mg/ml) for 1 hour at room temperature in the dark to label all nuclei. Complexes were then washed twice in PBS/BSA and mounted with slight coverslip compression in VectaShield anti-bleaching solution (Vector labs, Burlingame, Calif.), and stored in the dark at 4° C. for confocal analysis.
Apoptosis in COC and OOX was visualised and quantified using confocal microscopy. Dual fluorescence emission from CC was detected using a Nikon C1 Confocal Scanning Head and a Nikon TE2000E microscope (Nikon, Tokyo, Japan). Simultaneous emission capture of the apoptotic signal (fluorescein, lacer excitation 488 nm, emission 510-530 nm) and the nuclear signal (propidium iodide, excitation lacer 532, emission 590-640 nm) was performed.
In order to generate an accurate representation of the overall apoptotic incidence for all complexes, the depth of each complex was measured through a Z series to divide the construct into three percentiles (optical Z plane sections) at 25%, 50% and 75%. These optical section images were acquired and saved as independent colour channels (green, apoptotic cumulus fluorescence and red, nuclear cumulus fluorescence). The captured images were then processed in Scanalytics IPlab software Version 3.6. (Scanalytics, Fairfax, Va.). Quantification of CC number (for each colour channel) was independently measured using a macro script utilizing an auto segmentation filter for each optical section percentile (3 optical “z”-plane sections for each complex).

[3] = test system: cumulus expansion of oocytectomised (OOX) complexes; assay: FSH-induced cumulus expansion score of OOX complexes; type: cell-based, mice
Method: Members of the TGF-β superfamily are prime candidates for the mouse cumulus expansion-enabling factor (CEEF). This study was conducted to examine TGF-β superfamily processes regulating cumulus expansion. COCs were collected from eGG-primed mice and the oocyte microsurgically removed to generate oocytectomised (OOX) complexes. […] The type-I receptors for GDF9 and […] are ALK5 and ALK4, respectively. We tested the ability of an ALK4/5/7 kinase inhibitor to neutralize cumulus expansion.

cumulus-oocyte complexes = assay: Study IV: oocyte developmental competence after IVM, IVF and embryo culture; type: cell-based, Bovine
Method: Unless otherwise specified, all chemicals and reagents were purchased from Sigma (St Louis, Mo.). Bovine ovaries were collected from local abattoirs and transported to the laboratory in warm saline (30-35° C.). COCs were aspirated from antral follicles (3 to 5 mm diameter) using an 18-gauge needle and a 10-ml syringe containing ˜2 ml aspiration medium (Hepes-buffered. Tissue Cultured Medium-199; TCM-199. ICN Biochemicals, Irvine, Calif., USA) supplemented with 50 μg/ml kanamycin, 0.5 mM sodium pyruvate, 50 μg/ml heparin and 4 mg/ml fatty acid-free bovine serum albumin (FAF-BSA; ICPbio Ltd, Aukland, NZ). Intact COCs with compact cumulus vestments>˜5 cell layers and evenly pigmented cytoplasm were selected under a dissecting microscope and washed twice in Hepes-buffered TCM-199 and once in Hepes-buffered TCM-199 supplemented with 10% fetal calf serim (FCS) (Invitrogen, Carlsbad, Calif.). The basic medium for oocyte maturation was Bovine VitroMat (Cook Australia, Eight Mile Plains, Qld, Australia), a medium based on the ionic composition of bovine follicular fluid. […] Complexes were cultured in pre-equilibrated 300 ? l drops overlaid with mineral oil and incubated at 39° C. with 5% CO2 in humidified air for 24 hour. […]
Recombinant mouse GDF9 and recombinant ovine BMP15 were produced and partially purified in-house as previously described using transfected 293 human embryonic kidney cell lines (293H) originally donated by O. Ritvos (University of Helsinki). Control conditioned medium (hereafter designated ‘293H’) was produced from untransfected 293H cells and subjected to the same chromatography procedures as GDF9 and BMP15 conditioned media.
Consequently, SB-431542 potently antagonizes the ALK 4/5 ligands; TGF-β1, the activins and GDF9, without affecting BMP signalling (Inman et al., 2002; Gilchrist et al., 2006). […] Follistatin-288 was generously donated by S. Shimasaki (University of California San Diego, USA) and we have previously shown that this binding protein antagonizes the bioactivities of native OSFs and recombinant BMP15 in CCs.
In vitro production of embryos was undertaken using defined, serum-free media (Bovine Vitro series of media, Cook Australia). Frozen semen from a single bull of proven fertility was used in all experiments. Briefly, thawed semen was layered over a discontinuous (45%: 90%) Percoll gradient (Amersham Bioscience) and centrifuged (RT) for 20-25 mins at 700 g. The supernatant was removed and the sperm pellet was washed with 500 μl Bovine VitroWash (Cook Australia) and centrifuged for a further 5 minutes at 200 g. Spermatozoa were resuspended with IVF medium (Bovine VitroFert, Cook Australia), then added to the fertilization media drops (Bovine VitroFert, supplemented with 0.01 mM heparin, 0.2 mM penicillamine and 0.1 mM hypotaurine) at a final concentration of 1×106 spermatozoa/ml. COCs were inseminated at a density of 10 μl of IVF medium per COC for 24 h, at 39° C. in 6% CO2 in humidified air.
CCs were removed by gentle pipetting 23-24 h post insemination and five presumptive zygotes were transferred into 20 μl drops of pre-equilibrated Cook Bovine VitroCleave medium (Cook Australia) and cultured under mineral oil at 38.5° C. in 7% O2, 6% CO2, balance N2, for five days (day 1 to day 5).
On Day 5, embryos were transferred in groups of 5-6 to 20 μl drops of pre-equilibrated Bovine VitroBlast (Cook Australia) at 38.5° C. overlaid with mineral oil and cultured to Day 8. Embryos were assessed for quality at Day 8 according to the definitions presented in the Manual of the International Embryo Transfer Society (Stringfellow, 1998) and were performed independently and blinded by an experienced bovine embryologist.
Cell counts were performed using a modified version of the technique described by (Fouladi-Nashta et al., 2005). […]

## CN[C@@H]1C[C@H]2O[C@@](C)([C@@H]1OC)n1c3ccccc3c3c4c(c5c6ccccc6n2c5c31)C(=O)NC4 [staurosporine, reference compound]
Cumulus cells [1]; 0.1 μM staurosporine for the last 6 h of 24 h
  incidence of CC apoptosis: 51%
Cumulus cells [1]; 1.0 μM staurosporine for the last 6 h of 24 h
  incidence of CC apoptosis: 74%

## follistatin [reference compound]
Cumulus cells [2]; OOX + 10% v/v BMP-15, follistatin 0-100 μg/ml
  apoptosis of BMP-15-treated OOXs with antagonist: dose-dependent increase in apoptosis
Cumulus cells [2]; OOX + 25 DO, 50 μg/ml follistatin or 20 μg/ml BMP-6 NAb alone
  antagonism of the anti-apoptotic effects of oocytes on cumulus cells: ~50%
[3]; OOX complexes co-cultured with oocytes, no significant effect (p>0.05)
  cumulus expansion score with follistatin: 2.7±0.2
[3]; response of OOX complexes to activin
  cumulus expansion score with follistatin: 0
cumulus-oocyte complexes; 4 μM SB-431542 or 10 μg/ml follistatin-288, compared to untreated COCs
  blastocyst development of control COCs treated with antagonist: significantly (P<0.05) decreased
cumulus-oocyte complexes; 10 μg/ml follistatin-288 during IVM, regardless of BMP15 treatment, control 76.2±1.3, p=0.007, in %
  cleavage rate of oocytes: 71.8±1.3
cumulus-oocyte complexes; SB-431542 against GDF9, follistatin against BMP15
  increase of blastocyst yields by GDF9 or BMP15 on addition of the respective antagonist: ablated

B1: activin A: TGF-β superfamily member, ligand of ALK4 (protein, UniProt P08476 311-426, looked up)
Inhibin beta A chain: GLECDGKVNICCKKQFFVSFKDIGWNDWIIAPSGYHANYCEGECPSHIAGTSGSSLSFHSTVINHYRMRGHSPFANLKSCCVPTKLRPMSMLYYDDGQNIIKKDIQNMIVEECGCS
modifications: Inhibin beta A chain
notes: TGF-β superfamily member, ligand of ALK4
[3]; score 0 (no expansion) to +4 (maximum expansion), mean ±SEM, OOX complexes with FSH
  cumulus expansion score: 2.6±0.1

B2: gremlin: BMP antagonist (BMP-2, BMP-4, BMP-7) obtained from R&D systems (protein, UniProt O60565 25-184, looked up)
Gremlin-1: KKKGSQGAIPPPDKAQHNDSEQTQSPQQPGSRNRGRGQGRGTAMPGEEVLESSQEALHVTERKYLKRDWCKTQPLKQTIHEEGCNSRTIINRFCYGQCNSFYIPRHIRKEEGSFQSCSFCKPKKFTTMMVTLNCPELQPPTKKKRVTRVKQCRCISIDLD
Cumulus cells [2]; OOX + 100 ng/ml BMP-7, 2 μg/ml gremlin, not when BMP-15 was present
  antagonism of the inhibitory effect of BMP-7 on CC apoptosis: significantly (P<0.001) reversed
Cumulus cells [2]; OOX + 10% BMP-15, increasing dose of gremlin (0-40 μg/ml)
  apoptosis of BMP-15-treated OOXs with antagonist: not significantly increased

B3: BMP-6: Recombinant human BMP-6 obtained from R&D systems (protein, UniProt P22004 375-513, looked up)
Bone morphogenetic protein 6: SASSRRRQQSRNRSTQSQDVARVSSASDYNSSELKTACRKHELYVSFQDLGWQDWIIAPKGYAANYCDGECSFPLNAHMNATNHAIVQTLVHLMNPEYVPKPCCAPTKLNAISVLYFDDNSNVILKKYRNMVVRACGCH
Cumulus cells [2]; OOX cultured with increasing doses (GDF-9 0-175 ng/ml, BMP-6 0-100 ng/ml, BMP-15 0-20% v/v, 5-50 DO), presence or absence of FSH
  effect on incidence of cumulus cell apoptosis: significantly decreased
Cumulus cells [2]; OOX treated with DO, 10 ng/ml BMP-6 and/or 10% v/v BMP-15
  effect on CC apoptosis, test for additive effect: significantly (P<0.001) decreased
Cumulus cells [1]; 0.1 μM staurosporine
  CC apoptosis of treated OOX exposed to staurosporine: 21%
Cumulus cells [1]; 1 μM staurosporine
  CC apoptosis of treated OOX exposed to staurosporine: 31%
